What was measured:
[1] = target: T1, human inositol monophosphatase (Homo sapiens, UniProt P29218); experiment: in vitro IMPase inhibition, malachite green phosphate assay; assay type: biochemical; settings: for IC50: human IMPase, constant amount of inositol monophosphate
T1 construct: made in house; host or cells: E. coli BL21 (DE3) pLysS
T1 sequence (P29218 1-277): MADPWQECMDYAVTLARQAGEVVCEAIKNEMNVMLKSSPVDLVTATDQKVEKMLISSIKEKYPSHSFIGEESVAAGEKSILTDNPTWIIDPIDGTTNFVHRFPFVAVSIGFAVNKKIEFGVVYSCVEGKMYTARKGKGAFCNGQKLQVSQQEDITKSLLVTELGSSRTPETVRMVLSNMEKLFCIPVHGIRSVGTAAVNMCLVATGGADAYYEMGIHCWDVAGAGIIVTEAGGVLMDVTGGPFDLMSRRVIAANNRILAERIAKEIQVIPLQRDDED
Description: Human inositol monophosphatase cDNA was ordered from Geneservice, Source Bioscience, Cambridge, UK. The cDNA was inserted into plasmid pRSET5a, which was then transformed into JM109 competent cells. These cells were allowed to multiply and the plasmid was then extracted from the cells. The plasmid was then transformed into expression bacteria, E.coli strain BL21 (DE3) pLysS. […] The next day the cells were lysed and the soluble fraction, which contained the enzyme, was collected. Purification was carried out in 3 stages. The soluble fraction was heated at 68° C. for 1 hour and then centrifuged. The supernatant was taken and run through a Q-sepharose column (Pharmacia). Different fractions were collected and assessed for activity. The active fractions were then passed through a Tricorn MonoQ 5/50 GL column (GE Healthcare, UK) for further purification.
Each enzymatic reaction using human inositol monophosphatase contained 0.00013 mg of enzyme (0.0673 mg/mL). The substrate inositol monophosphate (Alexis Chemicals) was diluted with the appropriate buffer to make up a concentration of 50 mM stock. The stock was then diluted with buffer to yield the following concentrations of substrate: 0 mM, 0.1 mM, 0.5 mM, 1.0 mM, 1.5 mM, 2.5 mM, 5 mM, 10 mM, 20 mM, 25 mM and 30 mM. From this 2 μL of substrate was added to each reaction well giving a tenfold dilution of substrate to 0 mM, 0.01 mM, 0.05 mM, 0.1 mM, 0.15 mM, 0.25 mM, 0.5 mM, 1 mM, 2 mM, 2.5 mM and 3 mM. The reaction buffer contained 1 mM EGTA, 150 mM KCl, 3 mM MgCl2, 0.5 ng/mL BSA, 50 mM Tri, HCl, pH 7.4 and 0.01% Triton X100.
A malachite green assay was used for the quantitative determination of free inorganic phosphate present at the end of the IMPase reaction. This involved dissolving 4.2% w/v ammonium molybdate in 4M hydrochloric acid. The Malachite Green itself was made up to 0.045% w/v concentration. From these stocks, a 3:1 malachite green:ammonium molybdate mixture was prepared and vortexed for thirty minutes. The malachite green forms a complex of ammonium molybdate:malachite green:inorganic phosphate in the presence of free inorganic phosphate. To each reaction plate, duplicate wells of a range of known phosphate concentrations were prepared within the concentration range of 0-300 μM with each well containing 20 μL of solution. The phosphate standards were made from serial dilutions of 1M potassium dihydrogen phosphate using double distilled H2O. To each well was added 180 μL of malachite green:ammonium molybdate mix. The colour produced by the reaction between the inorganic phosphate and malachite green:ammonium molybdate was proportional to the amount of phosphate present. The colour was allowed to develop for 15 min and then the plate was read on a TECAN Sunrise microplate reader at 595 nm wavelength.
For the reactions whose results are shown in FIG. 2, lithium (Sigma) was dissolved in double-distilled H2O and diluted appropriately to the concentration of 10 mM with 2 μL of lithium being added per well to yield a final well concentration of 1 mM. Stock concentrations of lithium were also made from this. L690330 was purchased from Sigma Chemicals, and was made up to a 1 mM stock concentration using H2O. From this stock the following concentrations were prepared using serial dilutions with water: 300 μM to 30 nM. These concentrations were used to produce a concentration-inhibition curve for the enzyme. Ebselen was purchased from BioFocus as a 10 mM stock in DMSO. […]

mice [2] = experiment: rearing experiments (infrared beam breaks, open-field test); assay type: in vivo, mouse; settings: p=0.023 (FIG. 9)
Procedure: Rearing experiments were also carried out as follows. Mice were allowed to move freely within a caged equipped with infrared beam lines placed at two heights.
Mice could only break the upper beams by rearing.

[3] = test system: inositol levels in mice brains; experiment: ex vivo inositol levels in mice brains by 1H NMR; parameters: species or system mouse; settings: 1 hour after intraperitoneal injection, p<0.001 (FIG. 6)
Procedure: Similar conclusions can be reached from the results shown in FIG. 6, in which inositol levels in mice brains were measured ex vivo using ^1H NMR spectroscopy. The results were obtained from brains removed from mice 1 hour after intraperitoneal injection either with ebselen or with a control.

mice [4] = experiment: amphetamine-induced hyperactivity (animal model of mania); assay type: in vivo, mouse; settings: ebselen i.p., d-amphetamine 4 mg/kg after 60 minutes, 60 to 120 minutes, p<0.001 (FIGS. 7, 8)
Procedure: Activity and monitoring evaluation of mice was also studied. Mice were given an i.p. injection with saline (control) or ebselen (1, 5 or 10 mg/kg) and placed in a 35×35 cm perspex arena where their location was recorded by the Ethovision videotracking system (Noldus, Wageningen, The Netherlands). After 60 minutes, the mice were injected with d-amphetamine (4 mg/kg) or control. The Ethovision system follows the centre of the body of the mouse and records its position according to the location of this point. Data analysis was performed by Ethovision software, and distances moved within each 5 minute interval were calculated and plotted. The total distance moved was computed for the time frame from 60 to 120 minutes following the beginning of data acquisition. Amphetamine-induced hyperactivity is used as an animal model of mania, and is sensitive to mood-stabilising drugs such as lithium.

inositol monophosphatase = experiment: mouse ex vivo assay of IMPase activity in brain homogenate; settings: 5 mg/kg i.p., CD1 male mice, 1 hour (FIG. 5)
Procedure: To determine the bio-availability of ebselen, a mouse ex vivo assay was used. In this assay mice were given an intraperitoneal (i.p.) injection of 5 mg/kg ebselen solublized in betacyclodextrin, according to the following procedure. A stock solution of 0.5 M ebselen in DMSO and a stock of 40% 2-Hydroxy propyl-beta-cyclodextrin (HPBCD) were made. A 3.5 mM solution of ebselen (from 0.5 M stock) was made into 40% HPBCD and finally, to obtain the concentration of 350 μM ebselen, a 1 in 10 dilution was carried out. A control solution was made containing the same dilution of DMSO and HPBCD. The volume of drug/vehicle injected i.p. into the mouse was 1 ml (for the animals dosed with ebselen this is approximately 5 mg/kg assuming each mouse weighs about 20 g). CD1 male mice, weighing approximately 20 g were used. The animals were dosed for one hour with either drug or vehicle before being killed by cervical dislocation. The brains were quickly dissected out and frozen in liquid nitrogen. […]
The protein concentration of each brain homogenate was determined and a stock of 2.5 mg of protein was made from the homogenate and stored. […] The intensity of the green color formed was measured at 595 nm.

mice [5] = experiment: rearing experiments with intracerebroventricular inositol; assay type: in vivo, mouse; settings: ebselen 5 mg/kg i.p., after 60 minutes 5.5 μmol inositol intracerebroventricular (FIG. 10)
Procedure: In these rearing experiments, mice were given an intraperitoneal injection of control or ebselen (5 mg/kg), and after 60 minutes were given an intracerebroventricular injection of control or 5.5 μmol inositol.

rats = settings: cited from earlier work
bovine IMPase = target: T2, bovine IMPase (Bos taurus, UniProt P20456); settings: reported value; cited from earlier work
T2 sequence (P20456 1-277): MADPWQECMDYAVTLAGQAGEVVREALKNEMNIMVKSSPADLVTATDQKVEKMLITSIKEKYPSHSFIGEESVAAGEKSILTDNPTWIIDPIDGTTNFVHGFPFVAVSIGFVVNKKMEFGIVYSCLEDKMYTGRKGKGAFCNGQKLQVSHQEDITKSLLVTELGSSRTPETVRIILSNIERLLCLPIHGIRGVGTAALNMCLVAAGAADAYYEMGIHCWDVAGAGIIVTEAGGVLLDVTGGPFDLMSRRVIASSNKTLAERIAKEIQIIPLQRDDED

Row | Compound | in vitro inhibition of IMPase ([1]; 30 μM compound (FIG. 4)) | IC50 [1] [nM] | number of beam breaks (rearing) during the open-field test (mice [2]) | mode of inhibition ([1]; purified human IMPase, various ebselen and substrate concentrations (FIG. 3)) | inositol levels in the brain versus control [3] | level of amphetamine-induced hyperactivity (mice [4]) | amount of phosphate detected (IMPase activity in brain homogenate) compared to the control (inositol monophosphatase) | effects of ebselen on suppressing rearing behaviour after inositol injection (mice [5]) | LD50 (rats) | IC50 (bovine IMPase) [nM]
1 | O=c1c2ccccc2sn1-c1ccccc1 [2-phenyl-1,2-benzisothiazol-3(2H)-one] | inhibition of IMPase is also achieved | 35000 | – | – | – | – | – | – | – | –
2 | O=c1c2ccccc2[se]n1-c1ccccc1 [Ebselen, 2-phenyl-1,2-benzisoselenazol-3(2H)-one] | – | ~2000 | significantly reduced | non-competitive mode of inhibition | significantly lower | reduced level of amphetamine-induced hyperactivity | significantly lower | significantly reduced | greater than 1000 mg/kg | –
3 | CC(Oc1ccc(O)cc1)(P(=O)(O)O)P(=O)(O)O [L690330] | – | 1500 | – | – | – | – | – | – | – | ~300

Source: patent publication US8901158B2, “Treatment of bipolar disorder” (Isis Innovation Ltd., priority 2011, dated 2014)
